What was measured:
Echinochloa spp. = experiment: Paddy field treatment (Test Example 3); assay type: in vivo, Echinochloa crusgalli; conditions: paddy pot, submerged 4 cm, dropped on water surface 10th day after transplantation, 1 kg active ingredient per hectare, evaluated 21st day
Procedure: (§1) In the above evaluation criteria, the term “herbicidal effect” means evaluation to the objective weeds, and a higher index of the evaluation criteria means higher herbicidal effect on the objective weeds. On the other hand, a lower index of the evaluation criteria for the crops means higher safety to the crops. A plastic pot of 130 cm^2 was filled with paddy soil, and soil puddling was carried out to adjust the submerged depth to 4 cm. Then, seeds of Echinochloa crusgalli, Monochoria vaginalis, Ammannia multiflora and Scirpus juncoides were sowed, and rice (Oryza […], variety: Koshihikari) of two-leaf period was transplanted by 2 rice plants of 1 stub per pot at a depth of 3 cm. On the 10th day after the transplantation, a wettable powder composition was prepared in accordance with Formulation Example 1, diluted with water in such an amount that the amount of the active ingredient became 1 kg per hectare, and then dropped to diffuse on the water surface. On the 21st day after the dropping, observation and evaluation were carried out according to the aforesaid criteria.

[1] = system: wheat (Triticum aestivum); experiment: Upland field foliage treatment (Test Example 1), crop; assay type: in vivo; conditions: foliage treatment 14th day after sowing, 1 kg active ingredient per hectare, evaluated 21st day, lower index = higher safety
Source text: (§2) In the above evaluation criteria, the term “herbicidal effect” means evaluation to the objective weeds, and a higher index of the evaluation criteria means higher herbicidal effect on the objective weeds. On the other hand, a lower index of the evaluation criteria for the crops means higher safety to the crops. A plastic pot of 130 cm^2 was filled with upland soil. Then, seeds of weeds, namely, Setaria viridis, Digitaria adscendens, Chenopodium album and Stellaria media, and seeds of crops, namely, soybean (Glycine max) and wheat (Triticum aestivum), were sowed and covered with soil of about 1 cm thick. On the 14th day after the sowing, a wettable powder composition was prepared in accordance with Formulation Example 1, diluted with water in such an amount that the amount of the active ingredient became 1 kg per hectare, and then uniformly applied to the plant leaf surfaces. On the 21st day after the application, observation and evaluation were carried out according to the aforesaid criteria.

soybean (Glycine max) [2] = experiment: as above; assay type: in vivo; conditions: foliage treatment 14th day after sowing, 1 kg active ingredient per hectare, evaluated 21st day, lower index = higher safety
Source text: as §2

Stellaria media [3] = experiment: Upland field foliage treatment (Test Example 1); assay type: in vivo; conditions: foliage treatment 14th day after sowing, wettable powder, 1 kg active ingredient per hectare, evaluated 21st day after application
Source text: as §2

Chenopodium album [4] = experiment: Upland field foliage treatment (Test Example 1); assay type: in vivo; conditions: foliage treatment 14th day after sowing, wettable powder, 1 kg active ingredient per hectare, evaluated 21st day after application
Source text: as §2

Digitaria adscendens [5] = experiment: Upland field foliage treatment (Test Example 1); assay type: in vivo; conditions: foliage treatment 14th day after sowing, wettable powder, 1 kg active ingredient per hectare, evaluated 21st day after application
Source text: as §2

Setaria viridis [6] = experiment: Upland field foliage treatment (Test Example 1); assay type: in vivo; conditions: foliage treatment 14th day after sowing, wettable powder, 1 kg active ingredient per hectare, evaluated 21st day after application
Source text: as §2

Scirpus juncoides = experiment: Paddy field treatment (Test Example 3); assay type: in vivo; conditions: paddy pot, submerged 4 cm, dropped on water surface 10th day after transplantation, 1 kg active ingredient per hectare, evaluated 21st day
Procedure: as §1

Ammannia multiflora = experiment: Paddy field treatment (Test Example 3); assay type: in vivo; conditions: paddy pot, submerged 4 cm, dropped on water surface 10th day after transplantation, 1 kg active ingredient per hectare, evaluated 21st day
Procedure: as §1

Monochoria vaginalis = experiment: Paddy field treatment (Test Example 3); assay type: in vivo; conditions: paddy pot, submerged 4 cm, dropped on water surface 10th day after transplantation, 1 kg active ingredient per hectare, evaluated 21st day
Procedure: as §1

Stellaria media [7] = experiment: Upland soil treatment (Test Example 2); assay type: in vivo; conditions: soil surface treatment next day after sowing, wettable powder, 1 kg active ingredient per hectare, evaluated 21st day after application
Source text: (§3) In the above evaluation criteria, the term “herbicidal effect” means evaluation to the objective weeds, and a higher index of the evaluation criteria means higher herbicidal effect on the objective weeds. On the other hand, a lower index of the evaluation criteria for the crops means higher safety to the crops. A plastic pot of 130 cm^2 was filled with upland soil. Then, seeds of weeds, namely, Setaria viridis, Digitaria adscendens, Chenopodium album and Stellaria media, and seeds of crops, namely, soybean (Glycine max) and wheat (Triticum aestivum), were sowed and covered with soil of about 1 cm thick. On the next day after the sowing, a wettable powder composition was prepared in accordance with Formulation Example 1, diluted with water in such an amount that the amount of the active ingredient became 1 kg per hectare, and then uniformly applied to the soil surface. On the 21st day after the application, observation and evaluation were carried out according to the aforesaid criteria.

Chenopodium album [8] = experiment: Upland soil treatment (Test Example 2); assay type: in vivo; conditions: soil surface treatment next day after sowing, wettable powder, 1 kg active ingredient per hectare, evaluated 21st day after application
Source text: as §3

Digitaria adscendens [9] = experiment: Upland soil treatment (Test Example 2); assay type: in vivo; conditions: soil surface treatment next day after sowing, wettable powder, 1 kg active ingredient per hectare, evaluated 21st day after application
Source text: as §3

Setaria viridis [10] = experiment: Upland soil treatment (Test Example 2); assay type: in vivo; conditions: soil surface treatment next day after sowing, wettable powder, 1 kg active ingredient per hectare, evaluated 21st day after application
Source text: as §3

[11] = system: wheat (Triticum aestivum); experiment: Upland soil treatment (Test Example 2), crop; assay type: in vivo; conditions: soil surface treatment next day after sowing, 1 kg active ingredient per hectare, evaluated 21st day, lower index = higher safety
Source text: as §3

soybean (Glycine max) [12] = experiment: Upland soil treatment (Test Example 2), crop; assay type: in vivo; conditions: soil surface treatment next day after sowing, 1 kg active ingredient per hectare, evaluated 21st day, lower index = higher safety
Source text: as §3

[13] = system: rice (Oryza sative, variety: Koshihikari); experiment: Paddy field treatment (Test Example 3), crop; assay type: in vivo, Oryza sativa; conditions: transplanted rice two-leaf period, water surface treatment 10th day after transplantation, 1 kg active ingredient per hectare, evaluated 21st day, lower index = higher safety
Procedure: as §1

Compound | Herbicidal activity Echinochloa spp. (Echinochloa spp.) | Herbicidal activity Triticum aestivum [1] | Herbicidal activity Glycine max (soybean (Glycine max) [2]) | Herbicidal activity Stellaria media (Stellaria media [3]) | Herbicidal activity Chenopodium album (Chenopodium album [4]) | Herbicidal activity Digitaria adscendens (Digitaria adscendens [5]) | Herbicidal activity Setaria viridis (Setaria viridis [6]) | Herbicidal activity Scirpus juncoides (Scirpus juncoides) | Herbicidal activity Ammannia multiflora (Ammannia multiflora) | Herbicidal activity Monochoria vaginalis (Monochoria vaginalis) | Herbicidal activity Stellaria media (Stellaria media [7]) | Herbicidal activity Chenopodium album (Chenopodium album [8]) | Herbicidal activity Digitaria adscendens (Digitaria adscendens [9]) | Herbicidal activity Setaria viridis (Setaria viridis [10]) | Herbicidal activity Triticum aestivum [11] | Herbicidal activity Glycine max (soybean (Glycine max) [12]) | Herbicidal activity Oryza sativa [13]
COC=C(Cn1nc(-c2cccc(C)c2)cc1C)C(=O)OC [Compound 3] | 3 (herbicidal effect of not less than 50% by weight and less than 70% by weight) | 0 (herbicidal effect of not less than 0% by weight and less than 10% by weight) | 0 (herbicidal effect of not less than 0% by weight and less than 10% by weight) | 5 (herbicidal effect of not less than 90% by weight) | 5 (herbicidal effect of not less than 90% by weight) | 4 (herbicidal effect of not less than 70% by weight and less than 90% by weight) | 5 (herbicidal effect of not less than 90% by weight) | 3 (herbicidal effect of not less than 50% by weight and less than 70% by weight) | 4 (herbicidal effect of not less than 70% by weight and less than 90% by weight) | 4 (herbicidal effect of not less than 70% by weight and less than 90% by weight) | 4 (herbicidal effect of not less than 70% by weight and less than 90% by weight) | 4 (herbicidal effect of not less than 70% by weight and less than 90% by weight) | 4 (herbicidal effect of not less than 70% by weight and less than 90% by weight) | 4 (herbicidal effect of not less than 70% by weight and less than 90% by weight) | 0 (herbicidal effect of not less than 0% by weight and less than 10% by weight) | 0 (herbicidal effect of not less than 0% by weight and less than 10% by weight) | 0 (herbicidal effect of not less than 0% by weight and less than 10% by weight)
COC=C(Cn1nc(-c2ccccc2Cl)cc1C)C(=O)OC [Compound 4] | 4 (herbicidal effect of not less than 70% by weight and less than 90% by weight) | 0 (herbicidal effect of not less than 0% by weight and less than 10% by weight) | 0 (herbicidal effect of not less than 0% by weight and less than 10% by weight) | 4 (herbicidal effect of not less than 70% by weight and less than 90% by weight) | 5 (herbicidal effect of not less than 90% by weight) | 4 (herbicidal effect of not less than 70% by weight and less than 90% by weight) | 4 (herbicidal effect of not less than 70% by weight and less than 90% by weight) | 4 (herbicidal effect of not less than 70% by weight and less than 90% by weight) | 3 (herbicidal effect of not less than 50% by weight and less than 70% by weight) | 5 (herbicidal effect of not less than 90% by weight) | 4 (herbicidal effect of not less than 70% by weight and less than 90% by weight) | 4 (herbicidal effect of not less than 70% by weight and less than 90% by weight) | 4 (herbicidal effect of not less than 70% by weight and less than 90% by weight) | 4 (herbicidal effect of not less than 70% by weight and less than 90% by weight) | 0 (herbicidal effect of not less than 0% by weight and less than 10% by weight) | 0 (herbicidal effect of not less than 0% by weight and less than 10% by weight) | 0 (herbicidal effect of not less than 0% by weight and less than 10% by weight)
COC=C(Cn1nc(-c2cccc(Cl)c2Cl)cc1C)C(=O)OC [Compound 6] | 4 (herbicidal effect of not less than 70% by weight and less than 90% by weight) | 0 (herbicidal effect of not less than 0% by weight and less than 10% by weight) | 0 (herbicidal effect of not less than 0% by weight and less than 10% by weight) | 4 (herbicidal effect of not less than 70% by weight and less than 90% by weight) | 4 (herbicidal effect of not less than 70% by weight and less than 90% by weight) | 4 (herbicidal effect of not less than 70% by weight and less than 90% by weight) | 4 (herbicidal effect of not less than 70% by weight and less than 90% by weight) | 3 (herbicidal effect of not less than 50% by weight and less than 70% by weight) | 3 (herbicidal effect of not less than 50% by weight and less than 70% by weight) | 3 (herbicidal effect of not less than 50% by weight and less than 70% by weight) | 4 (herbicidal effect of not less than 70% by weight and less than 90% by weight) | 4 (herbicidal effect of not less than 70% by weight and less than 90% by weight) | 4 (herbicidal effect of not less than 70% by weight and less than 90% by weight) | 4 (herbicidal effect of not less than 70% by weight and less than 90% by weight) | 0 (herbicidal effect of not less than 0% by weight and less than 10% by weight) | 0 (herbicidal effect of not less than 0% by weight and less than 10% by weight) | 0 (herbicidal effect of not less than 0% by weight and less than 10% by weight)

From patent US6809065B2, “Herbicide containing substituted pyrazole derivative as active ingredient” (SDS Biotech K.K., priority 2001, dated 2004)
